Measured values from ChEMBL document CHEMBL5233204, “Expanding the repertoire of methanocarba nucleosides from purinergic signaling to diverse targets” (RSC Med Chem, 2021).

Assays:
[1] = target: T1, P-gp (ABCB1) (Homo sapiens, UniProt P08183); test: Activation of P-gp (unknown origin) ATPase activity at 10 uM relative to control; settings: read-out: Activity
[2] = tested on: Human alphaherpesvirus 2; test: Antiviral activity against HSV-2 by plaque reduction neutralization test; type: functional, organism-based
[3] = tested on: Human alphaherpesvirus 1; test: Antiviral activity against HSV-1 by plaque reduction neutralization test; type: functional, organism-based
[4] = target: T1, P-gp (ABCB1); test: Inhibition of P-gp (unknown origin) ATPase activity at 10 uM relative to control

T1 sequence (P08183 whole entry): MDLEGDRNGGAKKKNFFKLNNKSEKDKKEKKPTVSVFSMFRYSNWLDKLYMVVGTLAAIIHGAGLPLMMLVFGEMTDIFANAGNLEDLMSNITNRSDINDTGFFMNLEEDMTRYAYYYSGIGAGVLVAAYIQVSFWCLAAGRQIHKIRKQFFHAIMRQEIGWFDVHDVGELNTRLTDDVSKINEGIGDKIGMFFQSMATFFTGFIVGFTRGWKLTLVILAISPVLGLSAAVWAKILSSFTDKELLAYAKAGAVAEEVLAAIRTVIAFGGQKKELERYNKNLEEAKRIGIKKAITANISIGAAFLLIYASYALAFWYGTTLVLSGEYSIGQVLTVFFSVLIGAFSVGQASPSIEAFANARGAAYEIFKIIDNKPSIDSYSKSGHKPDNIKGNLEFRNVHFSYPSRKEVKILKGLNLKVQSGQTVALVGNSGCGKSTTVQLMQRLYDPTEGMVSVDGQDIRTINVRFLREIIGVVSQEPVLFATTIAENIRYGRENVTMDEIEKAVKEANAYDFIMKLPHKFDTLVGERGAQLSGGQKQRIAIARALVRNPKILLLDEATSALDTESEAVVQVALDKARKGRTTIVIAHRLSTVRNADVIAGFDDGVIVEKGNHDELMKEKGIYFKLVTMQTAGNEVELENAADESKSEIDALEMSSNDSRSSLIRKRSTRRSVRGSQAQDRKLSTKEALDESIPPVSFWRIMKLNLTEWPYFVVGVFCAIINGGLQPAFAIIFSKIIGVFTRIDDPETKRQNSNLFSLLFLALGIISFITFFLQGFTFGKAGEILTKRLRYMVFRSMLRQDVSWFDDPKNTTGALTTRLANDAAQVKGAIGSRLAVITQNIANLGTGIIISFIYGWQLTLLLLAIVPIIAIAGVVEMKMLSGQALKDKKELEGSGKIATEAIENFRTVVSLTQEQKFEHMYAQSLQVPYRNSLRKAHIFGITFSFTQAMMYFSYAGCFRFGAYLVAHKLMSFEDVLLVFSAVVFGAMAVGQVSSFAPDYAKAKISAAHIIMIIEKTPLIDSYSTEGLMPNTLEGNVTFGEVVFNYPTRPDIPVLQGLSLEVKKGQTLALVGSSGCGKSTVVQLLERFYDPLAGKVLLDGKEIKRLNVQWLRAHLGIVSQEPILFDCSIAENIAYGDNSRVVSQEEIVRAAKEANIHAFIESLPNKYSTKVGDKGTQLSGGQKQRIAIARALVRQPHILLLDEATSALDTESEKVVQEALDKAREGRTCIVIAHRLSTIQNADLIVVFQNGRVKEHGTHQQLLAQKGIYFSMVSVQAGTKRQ

In the case of CNC(=O)[C@]12C[C@@H]1[C@@H](n1cnc3c(NCc4cccc(Cl)c4)nc(C#Cc4ccccc4)nc31)[C@H](O)[C@@H]2O, the activity at 10 µM [1] is reported as 31%.

Cc1cn([C@H]2C[C@H](O)[C@]3(CO)C[C@H]23)c(=O)[nH]c1=O [(NORTH)-METHANOCARBATHYMIDINE] was tested, and the IC50 [2] was 0.25 µM and the IC50 [3] was 0.02 µM.

With CNC(=O)[C@]12C[C@@H]1[C@@H](n1cnc3c(N[C@@H]4C[C@H]4c4ccc(F)c(F)c4)nc(C#Cc4ccccc4)nc31)[C@H](O)[C@@H]2O the inhibition at 10 µM [4] was 53%.
